Molecules are shown by their SMILES.

The target in the experiment is T1, EP4 (Homo sapiens, UniProt P35408).
T1 construct: host or cells: HEK293, stably transfected; also expresses a promiscuous G protein and a clytin variant
T1 sequence (P35408 whole entry): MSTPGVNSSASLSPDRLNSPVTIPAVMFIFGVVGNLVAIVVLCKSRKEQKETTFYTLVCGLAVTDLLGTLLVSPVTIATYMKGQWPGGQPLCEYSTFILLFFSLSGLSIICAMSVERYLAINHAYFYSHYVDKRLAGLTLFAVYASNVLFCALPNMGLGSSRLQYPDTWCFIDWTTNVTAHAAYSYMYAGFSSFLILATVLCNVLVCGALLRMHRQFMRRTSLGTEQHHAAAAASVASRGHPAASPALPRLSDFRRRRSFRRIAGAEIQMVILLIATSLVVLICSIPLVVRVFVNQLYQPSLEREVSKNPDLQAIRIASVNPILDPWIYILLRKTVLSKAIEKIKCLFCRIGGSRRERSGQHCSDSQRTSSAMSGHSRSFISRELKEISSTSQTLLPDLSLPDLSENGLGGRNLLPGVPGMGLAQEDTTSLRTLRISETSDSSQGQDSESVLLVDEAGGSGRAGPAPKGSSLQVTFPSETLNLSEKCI
Description: EP4 Ca2+-flux assay (functional calcium flux assay, stably transfected HEK293 cells). In kind it is cell-based. The settings on record: HEK293 cells stably transfected with EP4; ligand PGE2 10 nM; luminescence readout. Here is the method:
The compounds in the present disclosure were tested in a functional calcium flux assay using stably transfected HEK293 cells. Cells transfected with EP1, EP2, EP3 and EP4 were purchased from Eurofins Discovery Services (St. Charles, Mo.). Each receptor subtype has an additional promiscuous G protein added in order to couple to the calcium signaling pathway. The parental cell line used also expresses a novel variant of clytin, a calcium-activated photo-protein, to enable sensitive luminescent detection.
Cells were plated at 50,000 cells per well in black, clear bottom 96-well plates. The plated cells were allowed to sit at room temperature for 30 min prior to transferring to a humidified, 37° C., 5% CO2 incubator for 18-24 h. Assay buffer (HBSS with 20 mM HEPES) and loading buffer (assay buffer plus 10 μM Coelenterazine) were prepared on the day of the assay. Assays were performed by aspirating media from the assay plate and washing once with assay buffer, then replacing with loading buffer and allowing the cells to incubate for 1.5 h at room temperature. Compounds were prepared in assay buffer at a 3× final concentration in non-binding plates. Compounds were added to the cell plates and incubated for 30 min at room temperature. The prostanoid receptor ligand PGE2 was prepared at a 4× dilution ratio for a final concentration of 10 nM. Plates were run on a Flexstation™ using a 100 ms integration luminescence protocol for a total of 60 sec with ligand addition at 15 sec. Data were obtained from relative light units as measured by area under the curve.
(In general: Calcium assays in cells follow changes in intracellular calcium, usually with a dye or a luminescent sensor.)
With `O=C(NC1CC2(C1)CC(C(=O)O)C2)c1ccnc2ccn(Cc3ccc(C(F)(F)F)cc3)c12` (racemic) [Example 9, rac-6-(1-(4-(trifluoromethyl)benzyl)-1H-pyrrolo[3,2-b]pyridine-7-carboxamido) spiro[3.3]heptane-2-carboxylic Acid], the IC50 (as a rule, the midpoint of a concentration-inhibition curve) came to 6 nM.

Regarding `O=C(NC1CC2(C1)CC(C(=O)O)C2)c1nccc2ccn(Cc3ccc(C(F)(F)F)cc3)c12` (racemic) [Example 11, rac-6-(1-(4-(trifluoromethyl)benzyl)-1H-pyrrolo[2,3-c]pyridine-7-carboxamido)spiro[3.3]heptane-2-carboxylic Acid], the IC50 is 24 nM.

On to `O=C(NC1CC2(C1)CC(C(=O)O)C2)c1cccc2cnn(Cc3ccc(C(F)(F)F)cc3)c12` (racemic) [Example 12, rac-6-(1-(4-(trifluoromethyl)benzyl)-1H-indazole-7-carboxamido)spiro[3.3]heptane-2-carboxylic Acid], for which the IC50 turned out to be 2.7 nM.

Consider `O=C(NC1CC2(C1)CC(C(=O)O)C2)c1cccc2ncn(Cc3ccc(C(F)(F)F)cc3)c12` (racemic) [Example 13, rac-6-(1-(4-(trifluoromethyl)benzyl)-1H-benzo[d]imidazole-7-carboxamido) spiro[3.3]heptane-2-carboxylic Acid], for which the IC50 is 32 nM.

As to `O=C(NC1CC2(C1)CC(C(=O)O)C2)c1cc(F)cc2ccn(Cc3ccc(C(F)(F)F)cc3)c12` (racemic) [Example 21, rac-6-(5-fluoro-1-(4-(trifluoromethyl)benzyl)-1H-indole-7-carboxamido)spiro heptane-2-carboxylic Acid], the IC50 was 0.31 nM.

`O=C(NC1CC2(C1)CC(C(=O)O)C2)c1c(F)ccc2ccn(Cc3ccc(C(F)(F)F)cc3)c12` (racemic) [Example 23, rac-6-(6-fluoro-1-(4-(trifluoromethyl)benzyl)-1H-indole-7-carboxamido)spiro heptane-2-carboxylic Acid]: the IC50 was 0.3 nM.

For the compound `N#Cc1ccc(Cn2ccc3cccc(C(=O)NC4CC5(C4)CC(C(=O)O)C5)c32)cc1` (racemic) [Example 24, rac-6-(1-(4-cyanobenzyl)-1H-indole-7-carboxamido)spiro[3.3]heptane-2-carboxylic Acid], the IC50 is 10 nM.

Turning to `O=C(NC1CC2(C1)CC(C(=O)O)C2)c1cccc2ccn(Cc3ccc(C(F)F)cc3)c12` (racemic) [Example 25, rac-6-(1-(4-(difluoromethyl)benzyl)-1H-indole-7-carboxamido)spiro[3.3] heptane-2-carboxylic Acid], the IC50 stood at 0.4 nM.

In the case of `O=C(NC1CC2(C1)CC(C(=O)O)C2)c1cccc2ccn(Cc3ccc(S(F)(F)(F)(F)F)cc3)c12` (racemic) [Example 30, rac-6-(1-((4-(pentafluorothiol)phenyl)methyl)-1H-indole-7-carboxamido)spiro heptane-2-carboxylic Acid], the IC50 is 0.2 nM.

Turning to `O=C(NC1CC2(C1)CC(C(=O)O)C2)c1ccc(F)c2ccn(Cc3ccc(C(F)F)cc3)c12` (racemic) [Example 31, rac-6-(1-(4-(difluoromethyl)benzyl)-4-fluoro-1H-indole-7-carboxamido)spiro heptane-2-carboxylic Acid], the IC50 stood at 0.03 nM.

Turning to `N#Cc1ccc(Cn2ccc3cccc(C(=O)NC45CC(CC(=O)O)(C4)C5)c32)cc1` [Example 1, 2-(3-(1-(4-cyanobenzyl)-1H-indole-7-carboxamido)bicyclo[1.1.1]pentan-1-yl) acetic Acid], the IC50 turned out to be 13 nM.

Turning to `O=C(O)CC12CC(NC(=O)c3cccc4ccn(Cc5ccc(C(F)(F)F)cc5)c34)(C1)C2` [Example 2, 2-(3-(1-(4-(trifluoromethyl)benzyl)-1H-indole-7-carboxamido)bicyclo[1.1.1]pentan-1-yl)acetic Acid], the IC50 amounted to 1.5 nM.

Turning to `O=C(O)CC12CC(NC(=O)c3ccnc4ccn(Cc5ccc(C(F)(F)F)cc5)c34)(C1)C2` [Example 3, 2-(3-(1-(4-(trifluoromethyl)benzyl)-1H-pyrrolo[3,2-b]pyridine-7-carboxamido)bicyclo[1.1.11]pentan-1-yl)acetic Acid], the IC50 is 160 nM.

For `O=C(O)CC12CC(NC(=O)c3nccc4ccn(Cc5ccc(C(F)(F)F)cc5)c34)(C1)C2` [Example 5, 2-(3-(1-(4-(trifluoromethyl)benzyl)-1H-pyrrolo[2,3-c]pyridine-7-carboxamido)bicyclo[1.1.1]pentan-1-yl)acetic Acid], the IC50 is 930 nM.

Turning to `O=C(O)CC12CC(NC(=O)c3cccc4cnn(Cc5ccc(C(F)(F)F)cc5)c34)(C1)C2` [Example 6, 2-(3-(1-(4-(trifluoromethyl)benzyl)-1H-indazole-7-carboxamido)bicyclo[1.1.1]pentan-1-yl)acetic Acid], the IC50 was 19 nM.

On to `[2H]C([2H])(c1ccc(C(F)(F)F)cc1)n1ccc2cccc(C(=O)NC34CC(CC(=O)O)(C3)C4)c21` [Example 7, 2-(3-(1-((4-(trifluoromethyl)phenyl)methyl-d2)-1H-indole-7-carboxamido)bicyclo[1.1.1]pentan-1-yl)acetic Acid], for which the IC50 was found to be 2 nM.

As for `CC1(NC(=O)c2cccc3ccn(Cc4ccc(C(F)(F)F)cc4)c23)CC(CCC(=O)O)C1` (stereo not drawn) [Example 15, cis-3-(3-methyl-3-(1-(4-(trifluoromethyl)benzyl)-1H-indole-7-carboxamido)cyclobutyl)propanoic Acid], the IC50 was 400 nM.

As for `O=C(CC12CC(NC(=O)c3cccc4ccn(Cc5ccc(C(F)(F)F)cc5)c34)(C1)C2)NS(=O)(=O)c1ccccc1` [Example 16, N-(3-(2-oxo-2-(phenylsulfonamido)ethyl)bicyclo[1.1.1]pentan-1-yl)-1-(4-(trifluoromethyl)benzyl)-1H-indole-7-carboxamide], the IC50 worked out at 140 nM.

As for `O=C(NCC12CC(NC(=O)c3cccc4ccn(Cc5ccc(C(F)(F)F)cc5)c34)(C1)C2)NS(=O)(=O)c1ccccc1` [Example 17, N-(3-((3-(phenylsulfonyl)ureido)methyl)bicyclo[1.1.1]pentan-1-yl)-1-(4-(trifluoromethyl)benzyl)-1H-indole-7-carboxamide], the IC50 was found to be 130 nM.

Consider `O=C(NC12CC(Cc3nnn[nH]3)(C1)C2)c1cccc2ccn(Cc3ccc(C(F)(F)F)cc3)c12` [Example 18, N-(3-((1H-tetrazol-5-yl)methyl)bicyclo[1.1.1]pentan-1-yl)-1-(4-(trifluoromethyl)benzyl)-1H-indole-7-carboxamide], for which the IC50 was found to be 1.5 nM.

As for `O=C(O)CC12CCC(NC(=O)c3cccc4ccn(Cc5ccc(C(F)(F)F)cc5)c34)(C1)C2` [Example 19, 2-(4-(1-(4-(trifluoromethyl)benzyl)-1H-indole-7-carboxamido)bicyclo[2.1.1]hexan-1-yl)acetic Acid], the IC50 was found to be 9.1 nM.

For the compound `O=C(O)CC12CCC(NC(=O)c3cccc4ccn(Cc5ccc(C(F)F)cc5)c34)(C1)C2` [Example 26, 2-(4-(1-(4-(difluoromethyl)benzyl)-1H-indole-7-carboxamido)bicyclo[2.1.1]hexan-1-yl)acetic Acid], the IC50 was determined as 3.8 nM.

With `O=C(O)CC12CCC(NC(=O)c3ccc(F)c4ccn(Cc5ccc(C(F)(F)F)cc5)c34)(C1)C2` [Example 28, 2-(4-(4-fluoro-1-(4-(trifluoromethyl)benzyl)-1H-indole-7-carboxamido)bicyclohexan-1-yl)acetic Acid], the IC50 turned out to be 0.6 nM.

The record behind these values is patent US11066405B2, “Bicyclic compounds and their use in the treatment of cancer” (Tempest Therapeutics, Inc., priority 2017, dated 2021).
